Experimental data reported in publication PMC6364417, “Kinase inhibitor library screening identifies synergistic drug combinations effective in sensitive and resistant melanoma cells” (Journal of Experimental & Clinical Cancer Research : CR, 2019).
Where a name gives a salt, the structure may show the parent alone.

Assays:
Assay in all cases: Kinase inhibitor library screening, PrestoBlue cell viability, 1 or 10 μM, 72 h
[1] = test system: IGR37-GP cells (Dabrafenib-resistant); settings: IGR37 GP, 72 h
Protocol: (§1) After 72 h of treatment, cell viability was assessed using the PrestoBlue Cell Viability Reagent (ThermoFisher Scientific). Measurements were performed with the CLARIOstar Monochromator microplate reader (BMG Labtech).
(§2) Kinase inhibitor library screening. […] Each cell line was treated in its sensitive form (parental), and also as 2 resistant derivatives, which were made resistant to either Vemurafenib (XP) or Dabrafenib (GP). Drugs were added at 2 different concentrations, 1 and 10 μM, for 72 h and cell viability was assessed using the PrestoBlue Cell Viability assay. Results are depicted as % viability compared to untreated cells. Each cell line was analyzed at least in duplicate. […] (XLSX 95 kb)

[2] = test system: A375-XP cells (Vemurafenib-resistant); settings: A375 XP, 72 h
Protocol: as §1, §2

[3] = test system: A375-GP cells (Dabrafenib-resistant); settings: A375 GP, 72 h
Protocol: as §1, §2

A375 cells (parental) = settings: A375 Parental, 72 h
Protocol: as §1, §2

[4] = test system: IGR37-XP cells (Vemurafenib-resistant); settings: IGR37 XP, 72 h
Protocol: as §1, §2

IGR37 cells (parental) = settings: IGR37 Parental, 72 h
Protocol: as §1, §2

501Mel cells (parental) = settings: 501Mel Parental, 72 h
Protocol: as §1, §2

[5] = test system: 501Mel-XP cells (Vemurafenib-resistant); settings: 501Mel XP, 72 h
Protocol: as §1, §2

[6] = test system: 501Mel-GP cells (Dabrafenib-resistant); settings: 501Mel GP, 72 h
Protocol: as §1, §2

Structure (SMILES) | cell viability (kinase inhibitor library screening) ([1]; 1μΜ) [%] | cell viability (kinase inhibitor library screening) ([1]; 10μΜ) [%] | cell viability (kinase inhibitor library screening) ([2]; 1μΜ) [%] | cell viability (kinase inhibitor library screening) ([2]; 10μΜ) [%] | cell viability (kinase inhibitor library screening) ([3]; 1μΜ) [%] | cell viability (kinase inhibitor library screening) ([3]; 10μΜ) [%] | cell viability (kinase inhibitor library screening) (A375 cells (parental); 10μΜ) [%] | cell viability (kinase inhibitor library screening) (A375 cells (parental); 1μΜ) [%] | cell viability (kinase inhibitor library screening) ([4]; 1μΜ) [%] | cell viability (kinase inhibitor library screening) ([4]; 10μΜ) [%] | cell viability (kinase inhibitor library screening) (IGR37 cells (parental); 1μΜ) [%] | cell viability (kinase inhibitor library screening) (IGR37 cells (parental); 10μΜ) [%] | cell viability (kinase inhibitor library screening) (501Mel cells (parental); 1μΜ) [%] | cell viability (kinase inhibitor library screening) (501Mel cells (parental); 10μΜ) [%] | cell viability (kinase inhibitor library screening) ([5]; 1μΜ) [%] | cell viability (kinase inhibitor library screening) ([5]; 10μΜ) [%] | cell viability (kinase inhibitor library screening) ([6]; 1μΜ) [%] | cell viability (kinase inhibitor library screening) ([6]; 10μΜ) [%] | further results
CS(=O)(=O)CCNCc1ccc(-c2ccc3ncnc(Nc4ccc(OCc5cccc(F)c5)c(Cl)c4)c3c2)o1.Cc1ccc(S(=O)(=O)O)cc1.Cc1ccc(S(=O)(=O)O)cc1 [Lapatinib Ditosylate (Tykerb)] |  |  |  |  |  |  |  |  |  |  |  |  |  |  |  |  |  |  | cell viability, IGR37 GP, 10μΜ ([1]; 10μΜ): 14%; cell viability, A375 XP, 1μΜ ([2]; 1μΜ, in %): 114.8; cell viability, A375 XP, 10μΜ ([2]; 10μΜ, in %): 72.3; cell viability, A375 GP, 10μΜ ([3]; 10μΜ, in %): 81.7; cell viability, A375 Parental, 10μΜ (A375 cells (parental); 10μΜ, in %): 78.4; cell viability, IGR37 XP, 10μΜ ([4]; 10μΜ): 1.6%; cell viability, IGR37 Parental, 10μΜ (IGR37 cells (parental); 10μΜ, in %): 92.3; cell viability, 501Mel Parental, 10μΜ (501Mel cells (parental); 10μΜ, in %): 33.4; cell viability, 501Mel XP, 1μΜ ([5]; 1μΜ, in %): 94.1; cell viability, 501Mel XP, 10μΜ ([5]; 10μΜ, in %): -0.129; cell viability, 501Mel GP, 10μΜ ([6]; 10μΜ, in %): 78.0
Cc1[nH]nc2ccc(-c3cncc(OC[C@@H](N)Cc4ccccc4)c3)cc12 [A-674563] | 99.0 | 2.8 | 54.3 | 6.6 | 63.4 | 2.7 | 4.6 | 82.1 | 78.0 | 2.1 | 96.7 | 1.9 | 73.1 | 1.4 | 56.5 | 0.5 | 64.5 | 0.638 | 
CN1CC[C@H](c2c(O)cc(O)c3c(=O)cc(-c4ccccc4Cl)oc23)[C@H](O)C1 [Flavopiridol hydrochloride] | 4.5 | 3.8 | 5.6 | 5.1 | 4.6 | 3.0 | 7.2 | 7.0 | 2.9 | 3.2 | 2.2 | 2.2 | 1.1 | 1.3 | 0.473 | 0.3 | 0.662 | 0.4 | 
COc1cc(Nc2ncc3c(n2)-c2ccc(Cl)cc2C(c2c(F)cccc2OC)=NC3)ccc1C(=O)O [MLN8237 (Alisertib)] | 89.7 | 56.0 | 51.0 | 50.5 | 42.7 | 41.7 | 40.1 | 43.3 | 86.2 | 31.0 | 70.3 | 54.5 | 82.2 | 73.9 | 67.2 | 49.0 | 82.8 | 52.7 | 
Cc1ccc(NC(=O)c2cccc(C(C)(C)C#N)c2)cc1Nc1ccc2ncn(C)c(=O)c2c1 [AZ628] |  |  |  |  |  |  |  |  |  |  |  |  |  |  |  |  |  |  | Cell viability in kinase inhibitor library screening, IGR37 GP, 10μΜ ([1]; 10μΜ): 55.7%; Cell viability in kinase inhibitor library screening, IGR37 GP, 1μΜ ([1]; 1μΜ, in %): 78.8; Cell viability in kinase inhibitor library screening, A375 XP, 1μΜ ([2]; 1μΜ): 20.4; Cell viability in kinase inhibitor library screening, A375 XP, 10μΜ ([2]; 10μΜ): 13.2; Cell viability in kinase inhibitor library screening, A375 GP, 1μΜ ([3]; 1μΜ): 19.6; Cell viability in kinase inhibitor library screening, A375 GP, 10μΜ ([3]; 10μΜ): 21.0; Cell viability in kinase inhibitor library screening, A375 Parental, 10μΜ (A375 cells (parental); 10μΜ): 23.0; Cell viability in kinase inhibitor library screening, A375 Parental, 1μΜ (A375 cells (parental); 1μΜ): 26.2; Cell viability in kinase inhibitor library screening, IGR37 XP, 10μΜ ([4]; 10μΜ): 15.2%; Cell viability in kinase inhibitor library screening, IGR37 XP, 1μΜ ([4]; 1μΜ, in %): 60.5; Cell viability in kinase inhibitor library screening, IGR37 Parental, 1μΜ (IGR37 cells (parental); 1μΜ, in %): 45.5; Cell viability in kinase inhibitor library screening, IGR37 Parental, 10μΜ (IGR37 cells (parental); 10μΜ, in %): 41.8; Cell viability in kinase inhibitor library screening, 501Mel Parental, 1μΜ (501Mel cells (parental); 1μΜ, in %): 59.7; Cell viability in kinase inhibitor library screening, 501Mel Parental, 10μΜ (501Mel cells (parental); 10μΜ, in %): 64.1; Cell viability in kinase inhibitor library screening, 501Mel XP, 1μΜ ([5]; 1μΜ, in %): 116.3; Cell viability in kinase inhibitor library screening, 501Mel XP, 10μΜ ([5]; 10μΜ, in %): 79.0; Cell viability in kinase inhibitor library screening, 501Mel GP, 10μΜ ([6]; 10μΜ, in %): 83.3
